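Five concentrations, 48 hours, 96-well plates. Abbreviation: GI50, concentration required for 50% inhibition of growth. TGI marks complete inhibition of growth.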
What was measured:
Experiment in all cases: DTP human tumour cell line panel, 48 h
SNB-75 CNS = tested on: SNB-75 CNS
HL-60(TB) leukemia = tested on: HL-60(TB) leukemia
EKVX NSCLC = tested on: EKVX NSCLC
MOLT-4 leukemia = tested on: MOLT-4 leukemia
SW-620 colon = tested on: SW-620 colon
SK-MEL-5 melanoma = tested on: SK-MEL-5 melanoma
KM12 colon = tested on: KM12 colon
NCI-H522 lung = tested on: NCI-H522 lung

SMILES | GI50 (SNB-75 CNS) [µM] | TGI (SNB-75 CNS) [µM] | GI50 (HL-60(TB) leukemia) [µM] | TGI (HL-60(TB) leukemia) [µM] | GI50 (EKVX NSCLC) [µM] | TGI (EKVX NSCLC) [µM] | GI50 (MOLT-4 leukemia) [µM] | TGI (MOLT-4 leukemia) [µM] | GI50 (SW-620 colon) [µM] | TGI (SW-620 colon) [µM] | GI50 (SK-MEL-5 melanoma) [µM] | TGI (SK-MEL-5 melanoma) [µM] | GI50 (KM12 colon) [µM] | TGI (KM12 colon) [µM] | GI50 (NCI-H522 lung) [µM] | TGI (NCI-H522 lung) [µM]
COc1cc2nc3sc(C(=O)Nc4ccc(C(=O)OC(C)C)cc4)c(C(=O)Nc4ccc(Cl)cc4C)n3c(=O)c2cc1OC | 10.2 | 27.8 | 7.59 | 35.2 | 22.8 | > 100 | 2.87 | 18.9 | 1.88 | 25 | 6.08 | > 100 | 1.29 | 13.3 |  | 
C[n+]1c(/C=C\c2ccc(Cl)cc2)ccc2ccccc21 | 23.2 | > 100 | 24.2 | > 100 | 2.45 | > 100 | > 100 | > 100 | 4.1 | 63.4 | 5.56 | 18 | 3.6 | 15 | 12.4 | 89.4
Cc1cc(N2CCCCC2)nc(N(CCCNc2ccnc3cc(Cl)ccc23)Cc2ccco2)n1 | 3.36 | 16.8 | 1.94 | 4.51 | 2.42 | 11.7 | 2.45 | 7.18 | 1.61 | 4.37 | 1.67 | 3.06 | 2.82 | 11.1 | 2.63 | 7.69
C[C@@H]1CN(C(=O)c2ccc(NC(=O)c3cc(O[C@H](C)c4c(Cl)ccc(F)c4Cl)c(N)nn3)cc2)C[C@H](C)N1 | 2.8 | 11.1 | 1.21 | 3.3 | 5.66 | 21.3 | 0.907 | 10.4 | 2.29 | 12.6 | 1.55 | 3.44 | 0.0558 | 13.5 | 3.1 | 12.2
C=C1C(=O)O[C@@H]2C[C@@]3(C)CCC[C@H](C)C3=C[C@H]12 |  | 13.4 |  | 5.52 |  | 28.2 |  | 4.8 |  | 12.3 |  | 17.9 |  | 24.8 |  | 11.1
C=C1C(=O)O[C@H]2[C@H]1CC/C(COC(=O)CCCCC(=O)OC/C1=C/CC[C@@]3(C)O[C@H]3[C@H]3OC(=O)C(=C)[C@@H]3CC1)=C\CC[C@@]1(C)O[C@@H]21 | 20 | > 100 | 0.722 | 3.94 | 2.83 | > 100 |  |  | 1.17 | 2.78 | 2.6 | 7.73 | 2.94 | 12.4 | 1.76 | 3.57
COc1ccc(-c2[nH]c3ccccc3c2C=C(C#N)C#N)cc1 | 0.412 | 20.5 | 0.271 | 0.714 | 0.648 | > 100 | 0.578 | 5.53 | 0.435 | > 100 |  |  | 0.373 |  | 0.798 | 10.3
CC[C@H](C)[C@H]1NC(=O)[C@@H](N[C@](C)(O)[C@@H](N)CC(C)C)[C@@H](C)OC(=O)[C@H](Cc2ccc(OC)cc2)N(C)C(=O)[C@@H]2CCCN2C(=O)[C@H](CC(C)C)NC(=O)[C@@H](C)C(=O)[C@H](C(C)C)OC(=O)C[C@@H]1O | 0.0215 | 0.436 | 0.0218 | 0.281 |  |  | 0.0133 | 0.575 | 0.0167 | 6.06 | 0.018 | 0.665 | < 0.0108 | 0.829 | 0.0114 | 0.143
CC1=NN(c2ccccc2)C(=O)C1N=Nc1ccc([As](=O)(O)O)c(O)c1 (stereo not drawn) |  | > 100 |  | > 100 |  | > 100 |  | > 100 |  | > 100 |  | > 100 |  | > 100 |  | > 100
Oc1ccc2cc(Br)ccc2c1-c1c(O)ccc2cc(Br)ccc12 | 3.15 | 13.9 | 2.87 | 8.6 | 3.54 | 13.5 | 2.83 | 11 | 2.64 | 7.41 | 1.87 | 3.74 | 2.93 | 10.4 | 1.98 | 4.53
CCOc1cccc(/C=N/NC(=O)c2ccc(Nc3ccnc(C(F)(F)F)c3)cc2)c1O | 3.34 | > 67.5 | 1.33 | 5.47 | 1.21 | > 81.8 | 0.244 |  | 2.01 | > 100 | 1.18 | 8.11 | 1.62 | > 58.4 | 16.9 | > 82.8
C1=Cc2ccccc2Nc2ccccc21 | > 100 | > 100 | > 100 | > 100 | 50 | > 100 | > 100 | > 100 | > 100 | > 100 | > 100 | > 100 | > 100 | > 100 | > 100 | > 100
Cn1ccnc1C(=O)/C=C/c1ccc(C(=O)Nc2ccc(Cl)cc2)cc1 | 0.615 | > 33.3 | 0.669 | 1.97 | 2.34 | 22 | 0.81 | 2.43 |  |  | 2.35 | 7.04 |  |  | 1.81 | 14
CC1=C(C(=O)Nc2ccc(F)c(Cl)c2)C(c2ccccc2Cl)NC(=S)N1 (stereo not drawn) |  |  | 25.6 | > 50 | > 50 | > 50 | > 50 | > 50 | > 50 | > 50 | 12.4 | > 50 | 41.9 | > 50 | 35.7 | > 50
Cn1nccc1Nc1nccc(-c2cc3c(s2)C(C)(C)N(CCN2CCOCC2)C3=O)n1 | 15.9 | > 100 | 0.499 | 78 | 3.1 | > 100 | 25.7 | > 100 | 1.22 | > 100 | 1.31 | 58 | 7.86 | > 100 | 14.9 | > 100

From PubChem BioAssay (NCI)
